The target of this test is Galactokinase (Homo sapiens, UniProt P51570). Kind of test: Inhibition of recombinant human GALK1 using galactose as substrate incubated for 1 hrs in the presence of ATP by Kinase-Glo reagent based luminescence assay. Background: Kinase-Glo reads ATP consumption through a luciferase reaction.
Chain of Galactokinase (P51570 whole entry): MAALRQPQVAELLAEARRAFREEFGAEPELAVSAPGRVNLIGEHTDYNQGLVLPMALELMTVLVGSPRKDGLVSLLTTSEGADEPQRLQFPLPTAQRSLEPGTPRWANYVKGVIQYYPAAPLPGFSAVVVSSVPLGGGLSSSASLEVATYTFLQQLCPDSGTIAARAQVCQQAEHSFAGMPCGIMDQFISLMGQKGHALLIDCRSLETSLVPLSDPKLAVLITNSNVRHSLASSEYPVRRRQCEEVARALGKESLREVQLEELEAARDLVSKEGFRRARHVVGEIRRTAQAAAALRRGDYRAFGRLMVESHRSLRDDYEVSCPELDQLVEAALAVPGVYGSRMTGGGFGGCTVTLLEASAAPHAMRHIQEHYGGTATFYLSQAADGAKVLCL

As to `CC1=C(C(=O)NCc2ccccc2O)C(c2ccccc2Cl)N=C(Nc2nc3ccccc3o2)N1` (stereo not drawn), the IC50 is 6.31 µM.
As for `CC1=C(C(=O)NCc2cncn2C)C(c2ccccc2Cl)N=C(Nc2nc3ccccc3o2)N1` (stereo not drawn), the IC50 came out at 1.58 µM.
Turning to `CC1=C(C(=O)Nc2cc(C(=O)O)ccn2)C(c2ccccc2Cl)N=C(Nc2nc3cc(F)ccc3o2)N1` (stereo not drawn), the IC50 is 3.16 µM.

What is called IC50 is the concentration at which inhibition is half-maximal.

The record behind these values is BindingDB's records for PubMed 34491744 (National Center For Advancing Translational Sciences, 2021).
